Assay results taken from ChEMBL document CHEMBL1201862, “PubChem BioAssay data set” (2004).
Where “and” joins values, the source holds several entries; their conditions need not be identical. Equal values may be shown once. Each block holds one molecule with its values, some of them ahead of it. Calls of active or inactive are those of the source.

What was measured:
Assay type in all cases: functional
[1] = molecular target: T1, Apoptotic protease-activating factor 1 (Homo sapiens, UniProt O14727); experiment: activation of Apaf-1 mediated apoptosis – fluorescent, uHTS hits, dose response (AID 588554)
T1 sequence (O14727 whole entry): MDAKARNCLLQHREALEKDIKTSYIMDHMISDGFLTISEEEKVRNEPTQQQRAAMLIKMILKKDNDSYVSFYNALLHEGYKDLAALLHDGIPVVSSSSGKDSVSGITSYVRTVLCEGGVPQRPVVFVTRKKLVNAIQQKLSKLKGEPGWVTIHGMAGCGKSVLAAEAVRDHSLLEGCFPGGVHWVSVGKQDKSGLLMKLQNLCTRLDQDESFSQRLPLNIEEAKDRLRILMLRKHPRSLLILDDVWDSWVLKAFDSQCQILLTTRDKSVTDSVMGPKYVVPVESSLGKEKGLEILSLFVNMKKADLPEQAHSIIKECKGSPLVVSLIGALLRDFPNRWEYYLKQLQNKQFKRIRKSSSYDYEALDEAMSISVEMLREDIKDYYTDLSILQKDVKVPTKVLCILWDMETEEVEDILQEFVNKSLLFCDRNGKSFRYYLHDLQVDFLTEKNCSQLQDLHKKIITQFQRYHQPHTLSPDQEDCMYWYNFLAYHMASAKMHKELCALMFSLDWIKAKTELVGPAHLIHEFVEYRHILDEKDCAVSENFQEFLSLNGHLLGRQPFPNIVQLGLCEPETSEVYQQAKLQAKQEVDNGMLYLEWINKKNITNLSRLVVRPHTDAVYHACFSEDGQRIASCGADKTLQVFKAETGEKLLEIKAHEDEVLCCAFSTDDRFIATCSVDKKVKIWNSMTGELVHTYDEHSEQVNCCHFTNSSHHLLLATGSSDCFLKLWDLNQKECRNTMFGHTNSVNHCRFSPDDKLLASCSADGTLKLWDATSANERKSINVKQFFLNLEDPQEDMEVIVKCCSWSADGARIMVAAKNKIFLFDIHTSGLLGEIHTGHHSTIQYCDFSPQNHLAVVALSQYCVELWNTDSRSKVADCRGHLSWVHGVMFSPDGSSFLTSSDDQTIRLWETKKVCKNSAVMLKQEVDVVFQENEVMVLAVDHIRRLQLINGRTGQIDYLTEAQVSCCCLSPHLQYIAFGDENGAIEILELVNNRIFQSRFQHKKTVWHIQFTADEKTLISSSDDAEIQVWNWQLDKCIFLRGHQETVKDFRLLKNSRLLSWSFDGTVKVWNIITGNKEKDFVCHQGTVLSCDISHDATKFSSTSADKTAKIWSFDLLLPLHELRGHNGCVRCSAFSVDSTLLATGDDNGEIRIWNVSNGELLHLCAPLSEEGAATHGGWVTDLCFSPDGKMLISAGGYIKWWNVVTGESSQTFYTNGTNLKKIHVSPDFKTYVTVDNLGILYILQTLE

[2] = SAR analysis of small molecule activators of Apaf-1 using a LZ-Caspase-9/Caspase-3 Fluorescent Selectivity assay - Set 2.; conditions: read-out: EC50_Mean
[3] = molecular target: T1, Apoptotic protease-activating factor 1; experiment: SAR analysis of small molecule Activators of Apaf-1 in a Fluorescent assay - set 2.; conditions: read-out: EC50_Mean
[4] = molecular target: T1, Apoptotic protease-activating factor 1; experiment: SAR analysis of small molecule Activators of Apaf-1 in a Fluorescent assay.; conditions: read-out: EC50_Mean
[5] = molecular target: Dual specificity tyrosine-phosphorylation-regulated kinase 1B (Homo sapiens, UniProt Q9Y463); experiment: Navigating the Kinome. Panel member name: DYRK1B
[6] = molecular target: Serine/threonine-protein kinase TBK1 (Homo sapiens, UniProt Q9UHD2); experiment: Navigating the Kinome. Panel member name: TBK1
[7] = molecular target: Vascular endothelial growth factor receptor 1 (Homo sapiens, UniProt P17948);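 note: measured within a kinome-wide profiling panel, FLT1 as the panel member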
[8] = molecular target: Protein kinase C theta type (Homo sapiens, UniProt Q04759); experiment: Navigating the Kinome. Panel member name: PRKCQ
[9] = molecular target: Serine/threonine-protein kinase PAK 4 (Homo sapiens, UniProt O96013);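 note: value obtained within a kinome profiling panel in which PAK4 was one of the panel members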
[10] = molecular target: Mitogen-activated protein kinase 9 (Homo sapiens, UniProt P45984);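 note: value from a kinome panel profiling assay, MAPK9 panel entry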
[11] = molecular target: Tyrosine-protein kinase receptor TYRO3 (Homo sapiens, UniProt Q06418);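 note: TYRO3 value obtained as one member of a kinome-wide profiling panel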
[12] = molecular target: Dual specificity mitogen-activated protein kinase kinase 1 (Homo sapiens, UniProt Q02750); experiment: Navigating the Kinome. Panel member name: MAP2K1
[13] = molecular target: Insulin-like growth factor 1 receptor (Homo sapiens, UniProt P08069); experiment: Navigating the Kinome. Panel member name: IGF1R
[14] = molecular target: Dual specificity tyrosine-phosphorylation-regulated kinase 1A (Homo sapiens, UniProt Q13627);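 note: measured against DYRK1A as one member of a broad kinome profiling panel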
[15] = molecular target: Proto-oncogene tyrosine-protein kinase receptor Ret (Homo sapiens, UniProt P07949);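 note: measured within a kinome-wide profiling panel, RET as the panel member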
[16] = molecular target: Leukocyte tyrosine kinase receptor (Homo sapiens, UniProt P29376); experiment: Navigating the Kinome. Panel member name: LTK
[17] = molecular target: Serine/threonine-protein kinase D3 (Homo sapiens, UniProt O94806);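 note: determined within a kinase panel screen, with PRKCN as the panel member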
[18] = molecular target: Fibroblast growth factor receptor 1 (Homo sapiens, UniProt P11362)
[19] = molecular target: cAMP-dependent protein kinase catalytic subunit alpha (Homo sapiens, UniProt P17612)
[20] = molecular target: Ribosomal protein S6 kinase alpha-3 (Homo sapiens, UniProt P51812);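 note: measured within a kinome-wide profiling panel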
[21] = molecular target: Hepatocyte growth factor receptor (Homo sapiens, UniProt P08581);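 note: kinase panel profiling across the kinome, with MET as the panel member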
[22] = molecular target: Serine/threonine-protein kinase TAO1 (Homo sapiens, UniProt Q7L7X3)
[23] = molecular target: Macrophage colony-stimulating factor 1 receptor (Homo sapiens, UniProt P07333);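 note: value comes from the Navigating the Kinome screening panel, CSF1R member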
[24] = molecular target: G protein-coupled receptor kinase 5 (Homo sapiens, UniProt P34947); experiment: Navigating the Kinome. Panel member name: GPRK5
[25] = molecular target: High affinity nerve growth factor receptor (Homo sapiens, UniProt P04629);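 note: NTRK1 tested as one member of a kinome-wide profiling panel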
[26] = molecular target: Cyclin-dependent kinase 7 (Homo sapiens, UniProt P50613);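 note: value comes from a kinome-wide kinase profiling panel in which CDK7 is one member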
[27] = molecular target: Calcium/calmodulin-dependent protein kinase type II subunit alpha (Homo sapiens, UniProt Q9UQM7); experiment: Navigating the Kinome. Panel member name: CAMK2A
[28] = molecular target: ALK tyrosine kinase receptor (Homo sapiens, UniProt Q9UM73);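 note: ALK tested as one member of a kinase panel screen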
[29] = molecular target: Mitogen-activated protein kinase kinase kinase kinase 4 (Homo sapiens, UniProt O95819)
[30] = molecular target: Receptor-type tyrosine-protein kinase FLT3 (Homo sapiens, UniProt P36888);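 note: FLT3 was tested as one member of a kinome-wide kinase panel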
[31] = molecular target: 5'-AMP-activated protein kinase catalytic subunit alpha-1 (Homo sapiens, UniProt Q13131)
[32] = molecular target: Inhibitor of nuclear factor kappa-B kinase subunit epsilon (Homo sapiens, UniProt Q14164); experiment: Navigating the Kinome. Panel member name: IKBKE
[33] = molecular target: Tyrosine-protein kinase BTK (Homo sapiens, UniProt Q06187)
[34] = molecular target: Dual specificity protein kinase CLK2 (Homo sapiens, UniProt P49760)
[35] = molecular target: Dual specificity protein kinase CLK4 (Homo sapiens, UniProt Q9HAZ1)
[36] = molecular target: Glycogen synthase kinase-3 alpha (Homo sapiens, UniProt P49840);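 note: GSK3A result taken from a broad kinome-wide kinase panel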
[37] = molecular target: Tyrosine-protein kinase Fyn (Homo sapiens, UniProt P06241)
[38] = molecular target: Cyclin-dependent kinase 5 (Homo sapiens, UniProt Q00535);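 note: CDK5 measured as one member of a kinase profiling panel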
[39] = molecular target: Glycogen synthase kinase-3 beta (Homo sapiens, UniProt P49841);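 note: value comes from a broad kinome profiling panel, with GSK3B as the panel member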
[40] = molecular target: Activin receptor type-1 (Homo sapiens, UniProt Q04771); experiment: Navigating the Kinome. Panel member name: ACVR1
[41] = molecular target: Macrophage-stimulating protein receptor (Homo sapiens, UniProt Q04912); experiment: Navigating the Kinome. Panel member name: MST1R
[42] = molecular target: Serine/threonine-protein kinase pim-1 (Homo sapiens, UniProt P11309)
[43] = molecular target: Aurora kinase B (Homo sapiens, UniProt Q96GD4)
[44] = molecular target: Dual specificity mitogen-activated protein kinase kinase 2 (Homo sapiens, UniProt P36507); experiment: Navigating the Kinome. Panel member name: MAP2K2
[45] = molecular target: Leucine-rich repeat serine/threonine-protein kinase 2 (Homo sapiens, UniProt Q5S007);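 note: value from a broad kinome-wide panel profiling study in which LRRK2 was one of the kinases tested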
[46] = molecular target: BDNF/NT-3 growth factors receptor (Homo sapiens, UniProt Q16620);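 note: NTRK2 measured as one member of a broad kinome-wide kinase profiling panel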
[47] = molecular target: Tyrosine-protein kinase JAK2 (Homo sapiens, UniProt O60674);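 note: JAK2 tested as one member of a kinase panel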
[48] = molecular target: Cyclin-dependent kinase 8 (Homo sapiens, UniProt P49336); experiment: Navigating the Kinome. Panel member name: CDK8
[49] = molecular target: Mitogen-activated protein kinase 14 (Homo sapiens, UniProt Q16539);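 note: part of a kinome-wide panel, MAPK14 entry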
[50] = molecular target: Rho-associated protein kinase 1 (Homo sapiens, UniProt Q13464);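 note: measured within a broad kinome-wide panel profiling many kinases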
[51] = molecular target: Mitogen-activated protein kinase 8 (Homo sapiens, UniProt P45983);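 note: value comes from one member of a kinome-wide kinase profiling panel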
[52] = molecular target: Activated CDC42 kinase 1 (Homo sapiens, UniProt Q07912); experiment: Navigating the Kinome. Panel member name: ACK1
[53] = molecular target: Cyclin-dependent kinase 9 (Homo sapiens, UniProt P50750);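 note: value from the CDK9 entry of a kinome-spanning kinase panel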
[54] = molecular target: Tyrosine-protein kinase JAK3 (Homo sapiens, UniProt P52333)
[55] = molecular target: Death-associated protein kinase 3 (Homo sapiens, UniProt O43293);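 note: measured as one member of a kinome-wide profiling panel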
[56] = molecular target: Aurora kinase A (Homo sapiens, UniProt O14965);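 note: value from the Navigating the Kinome kinase panel profiling, panel entry STK6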
[57] = molecular target: cAMP-dependent protein kinase catalytic subunit PRKX (Homo sapiens, UniProt P51817)
[58] = molecular target: Mitogen-activated protein kinase kinase kinase kinase 2 (Homo sapiens, UniProt Q12851);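 note: measured as one member of a kinome-wide kinase panel, with MAP4K2 as the panel entry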
[59] = molecular target: Vascular endothelial growth factor receptor 2 (Homo sapiens, UniProt P35968)
[60] = molecular target: Tyrosine-protein kinase ABL1 (Homo sapiens, UniProt P00519)
[61] = molecular target: Platelet-derived growth factor receptor alpha (Homo sapiens, UniProt P16234); experiment: Navigating the Kinome. Panel member name: PDGFRA
[62] = molecular target: Neuropeptides B/W receptor type 1 (Homo sapiens, UniProt P48145); experiment: GPR7 antagonist potency, late-stage follow-up, cell-based, fluorescence, dose response, set 6 (AID 588583)
[63] = molecular target: Melanin-concentrating hormone receptor 1 (Homo sapiens, UniProt Q99705); experiment: Late-stage fluorescence-based counterscreen for antagonists of the G-protein coupled receptor 7 (GPR7): cell-based dose response assay to identify antagonists of the melanin-concentrating hormone receptor 1 (MCHR1) Set 6.

Mitogen-activated protein kinase kinase kinase kinase 2, sequence (Q12851 whole entry): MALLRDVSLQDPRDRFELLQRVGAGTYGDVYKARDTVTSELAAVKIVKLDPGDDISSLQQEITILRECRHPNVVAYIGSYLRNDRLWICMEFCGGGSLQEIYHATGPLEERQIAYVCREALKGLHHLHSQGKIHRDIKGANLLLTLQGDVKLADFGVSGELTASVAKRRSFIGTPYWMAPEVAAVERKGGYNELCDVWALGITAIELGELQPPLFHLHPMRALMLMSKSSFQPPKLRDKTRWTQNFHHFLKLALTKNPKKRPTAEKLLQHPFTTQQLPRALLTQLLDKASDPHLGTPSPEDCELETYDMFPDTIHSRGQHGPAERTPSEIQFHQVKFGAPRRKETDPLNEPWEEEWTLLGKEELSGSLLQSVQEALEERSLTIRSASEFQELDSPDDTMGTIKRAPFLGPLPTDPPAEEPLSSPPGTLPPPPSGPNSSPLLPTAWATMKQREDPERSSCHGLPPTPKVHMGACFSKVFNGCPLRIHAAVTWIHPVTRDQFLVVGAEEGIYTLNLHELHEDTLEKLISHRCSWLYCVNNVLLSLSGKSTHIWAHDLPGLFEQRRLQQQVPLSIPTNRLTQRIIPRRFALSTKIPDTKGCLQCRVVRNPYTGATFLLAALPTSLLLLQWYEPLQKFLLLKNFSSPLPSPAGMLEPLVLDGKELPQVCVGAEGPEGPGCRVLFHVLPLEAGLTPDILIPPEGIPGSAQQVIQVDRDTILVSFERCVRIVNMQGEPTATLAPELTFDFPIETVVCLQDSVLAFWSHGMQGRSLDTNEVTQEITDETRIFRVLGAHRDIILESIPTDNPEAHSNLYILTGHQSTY
Hepatocyte growth factor receptor, sequence (P08581 whole entry): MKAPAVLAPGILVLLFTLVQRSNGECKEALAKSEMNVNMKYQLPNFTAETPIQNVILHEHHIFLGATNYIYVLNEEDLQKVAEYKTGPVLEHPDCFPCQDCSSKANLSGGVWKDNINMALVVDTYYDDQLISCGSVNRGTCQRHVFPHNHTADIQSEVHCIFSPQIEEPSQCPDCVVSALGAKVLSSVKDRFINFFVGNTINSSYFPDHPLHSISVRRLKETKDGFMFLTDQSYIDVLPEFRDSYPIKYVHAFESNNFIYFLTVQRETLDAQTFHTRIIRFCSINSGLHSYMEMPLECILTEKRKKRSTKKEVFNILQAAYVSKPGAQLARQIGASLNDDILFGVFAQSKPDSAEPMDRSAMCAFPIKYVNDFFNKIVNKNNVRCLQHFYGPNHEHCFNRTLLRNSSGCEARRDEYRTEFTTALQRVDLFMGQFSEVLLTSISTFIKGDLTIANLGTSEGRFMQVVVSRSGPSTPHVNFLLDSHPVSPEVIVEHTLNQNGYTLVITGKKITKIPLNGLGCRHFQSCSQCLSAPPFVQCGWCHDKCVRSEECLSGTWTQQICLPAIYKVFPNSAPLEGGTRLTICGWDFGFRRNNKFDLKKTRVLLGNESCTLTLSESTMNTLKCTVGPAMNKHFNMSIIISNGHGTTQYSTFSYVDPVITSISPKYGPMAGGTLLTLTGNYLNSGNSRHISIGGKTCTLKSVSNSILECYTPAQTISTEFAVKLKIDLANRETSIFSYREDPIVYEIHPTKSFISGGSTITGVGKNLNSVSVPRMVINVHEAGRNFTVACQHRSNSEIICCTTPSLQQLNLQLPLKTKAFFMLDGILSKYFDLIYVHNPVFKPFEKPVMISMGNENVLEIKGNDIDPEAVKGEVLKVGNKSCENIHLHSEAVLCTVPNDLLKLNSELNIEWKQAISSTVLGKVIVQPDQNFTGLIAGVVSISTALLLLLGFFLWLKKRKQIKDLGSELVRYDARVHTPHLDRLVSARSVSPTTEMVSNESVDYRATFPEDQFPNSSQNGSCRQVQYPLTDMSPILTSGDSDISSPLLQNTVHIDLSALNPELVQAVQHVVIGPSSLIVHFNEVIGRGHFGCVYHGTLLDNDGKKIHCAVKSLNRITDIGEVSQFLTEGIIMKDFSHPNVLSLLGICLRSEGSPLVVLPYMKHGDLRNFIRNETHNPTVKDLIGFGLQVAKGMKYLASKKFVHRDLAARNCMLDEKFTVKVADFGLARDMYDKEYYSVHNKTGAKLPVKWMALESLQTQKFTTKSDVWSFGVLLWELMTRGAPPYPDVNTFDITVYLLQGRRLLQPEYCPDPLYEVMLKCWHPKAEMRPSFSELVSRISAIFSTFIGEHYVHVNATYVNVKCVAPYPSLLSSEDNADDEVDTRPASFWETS
Macrophage-stimulating protein receptor, sequence (Q04912 25-304 limits assumed): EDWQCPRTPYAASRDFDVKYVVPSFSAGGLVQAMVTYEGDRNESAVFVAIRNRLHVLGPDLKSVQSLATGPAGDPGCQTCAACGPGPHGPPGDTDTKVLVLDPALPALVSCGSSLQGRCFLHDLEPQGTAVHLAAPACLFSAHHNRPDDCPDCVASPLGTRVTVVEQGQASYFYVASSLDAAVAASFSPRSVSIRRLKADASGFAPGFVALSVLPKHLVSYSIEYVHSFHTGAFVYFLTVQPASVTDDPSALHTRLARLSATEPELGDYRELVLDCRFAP
Macrophage-stimulating protein receptor, sequence (Q04912 310-1400 limits assumed): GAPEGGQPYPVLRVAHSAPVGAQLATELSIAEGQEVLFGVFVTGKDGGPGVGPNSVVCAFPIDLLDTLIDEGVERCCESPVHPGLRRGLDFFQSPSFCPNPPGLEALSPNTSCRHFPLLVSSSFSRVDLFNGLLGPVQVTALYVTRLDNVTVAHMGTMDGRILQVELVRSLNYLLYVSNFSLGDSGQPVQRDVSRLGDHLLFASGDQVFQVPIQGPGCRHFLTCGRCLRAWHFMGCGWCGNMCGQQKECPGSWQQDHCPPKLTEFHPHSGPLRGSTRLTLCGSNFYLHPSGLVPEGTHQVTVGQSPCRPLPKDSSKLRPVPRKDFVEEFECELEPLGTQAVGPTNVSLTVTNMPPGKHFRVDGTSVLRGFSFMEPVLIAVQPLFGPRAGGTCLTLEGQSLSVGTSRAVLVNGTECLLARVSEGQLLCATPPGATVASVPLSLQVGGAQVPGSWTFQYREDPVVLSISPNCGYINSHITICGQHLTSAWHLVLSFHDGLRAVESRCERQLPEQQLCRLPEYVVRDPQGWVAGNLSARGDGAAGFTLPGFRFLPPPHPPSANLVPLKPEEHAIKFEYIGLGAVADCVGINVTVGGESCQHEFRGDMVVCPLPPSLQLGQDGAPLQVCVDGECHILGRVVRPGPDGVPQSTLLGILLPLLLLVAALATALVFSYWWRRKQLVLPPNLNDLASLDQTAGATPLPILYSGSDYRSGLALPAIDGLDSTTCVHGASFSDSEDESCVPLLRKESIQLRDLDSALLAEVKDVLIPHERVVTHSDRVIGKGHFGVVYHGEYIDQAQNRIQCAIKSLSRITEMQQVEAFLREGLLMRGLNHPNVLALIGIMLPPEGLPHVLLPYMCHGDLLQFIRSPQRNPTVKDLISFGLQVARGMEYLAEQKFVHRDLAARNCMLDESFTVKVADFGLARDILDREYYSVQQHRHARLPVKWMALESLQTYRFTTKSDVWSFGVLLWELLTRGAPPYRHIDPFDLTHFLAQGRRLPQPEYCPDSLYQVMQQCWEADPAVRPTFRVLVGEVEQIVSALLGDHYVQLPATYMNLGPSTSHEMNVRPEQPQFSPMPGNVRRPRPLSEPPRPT
Macrophage colony-stimulating factor 1 receptor, sequence (P07333 whole entry): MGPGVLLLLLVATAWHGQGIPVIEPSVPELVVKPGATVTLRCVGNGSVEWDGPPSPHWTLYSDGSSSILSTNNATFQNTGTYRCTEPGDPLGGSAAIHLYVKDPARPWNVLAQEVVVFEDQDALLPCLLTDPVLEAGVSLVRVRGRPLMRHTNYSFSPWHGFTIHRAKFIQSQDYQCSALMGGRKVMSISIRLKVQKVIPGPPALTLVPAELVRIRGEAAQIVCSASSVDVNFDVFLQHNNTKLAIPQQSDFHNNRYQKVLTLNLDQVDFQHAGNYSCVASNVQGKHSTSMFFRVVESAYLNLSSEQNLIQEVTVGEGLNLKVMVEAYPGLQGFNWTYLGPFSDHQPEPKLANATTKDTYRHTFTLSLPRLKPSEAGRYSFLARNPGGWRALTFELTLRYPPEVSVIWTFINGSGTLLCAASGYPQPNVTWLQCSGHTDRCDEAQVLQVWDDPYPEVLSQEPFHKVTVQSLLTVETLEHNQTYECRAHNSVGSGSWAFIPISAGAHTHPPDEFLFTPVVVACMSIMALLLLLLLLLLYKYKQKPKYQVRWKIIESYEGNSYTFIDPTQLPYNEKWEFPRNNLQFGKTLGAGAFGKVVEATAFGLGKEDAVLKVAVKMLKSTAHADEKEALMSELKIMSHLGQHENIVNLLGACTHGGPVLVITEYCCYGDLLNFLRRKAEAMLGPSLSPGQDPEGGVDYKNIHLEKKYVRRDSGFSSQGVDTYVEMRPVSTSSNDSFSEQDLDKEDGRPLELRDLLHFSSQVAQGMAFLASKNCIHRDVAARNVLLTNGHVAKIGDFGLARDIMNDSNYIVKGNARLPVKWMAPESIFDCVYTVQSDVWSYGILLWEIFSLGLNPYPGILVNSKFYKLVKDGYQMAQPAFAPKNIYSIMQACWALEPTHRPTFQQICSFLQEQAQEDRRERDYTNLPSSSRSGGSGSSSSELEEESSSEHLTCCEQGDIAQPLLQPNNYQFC
Mitogen-activated protein kinase 14, sequence (Q16539 whole entry): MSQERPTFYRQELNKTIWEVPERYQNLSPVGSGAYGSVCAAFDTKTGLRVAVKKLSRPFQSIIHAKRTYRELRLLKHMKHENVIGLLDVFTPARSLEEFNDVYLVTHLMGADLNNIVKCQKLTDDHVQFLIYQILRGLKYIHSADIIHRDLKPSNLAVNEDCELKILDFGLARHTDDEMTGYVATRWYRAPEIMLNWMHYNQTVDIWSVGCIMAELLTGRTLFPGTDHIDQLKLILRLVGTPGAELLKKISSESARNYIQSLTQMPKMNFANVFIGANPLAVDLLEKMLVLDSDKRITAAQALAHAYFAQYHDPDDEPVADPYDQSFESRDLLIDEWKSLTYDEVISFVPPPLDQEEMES

- EC50 [1]: 2.25 µM (active)
- EC50 [3]: 9.48 µM (active) and 8.03 µM (active)
- EC50 [4]: 8.95 µM (active)
Compound: CC(Cc1c[nH]c2ccccc12)C(=O)O (stereo not drawn)
- EC50 [2]: > 99 µM (inactive) and > 100 µM (inactive)

- Ki [5]: 1.58 µM (active)
- Ki [6]: > 3.16 µM (inactive)
- Ki [7]: > 3.98 µM (inactive)
- Ki [8]: > 2.51 µM (inactive)
- Ki [9]: > 5.01 µM (inactive)
- Ki [10]: > 3.98 µM (inactive)
- Ki [11]: 2.51 µM (active)
- Ki [12]: > 3.16 µM (inactive)
- Ki [13]: > 2.51 µM (inactive)
- Ki [14]: > 2 µM (inactive)
- Ki [15]: > 3.16 µM (inactive)
- Ki [16]: > 2.51 µM (inactive)
- Ki [17]: > 3.98 µM (inactive)
- Ki [18]: > 3.98 µM (inactive)
- Ki [19]: > 1.26 µM (inactive)
- Ki [20]: > 3.98 µM (inactive)
- Ki [21]: > 2.51 µM (inactive)
- Ki [22]: > 6.31 µM (inactive)
- Ki [23]: > 2.51 µM (inactive)
- Ki [24]: > 3.98 µM (inactive)
- Ki [25]: > 3.16 µM (inactive)
- Ki [26]: > 3.98 µM (inactive)
- Ki [27]: > 7.94 µM (inactive)
- Ki [28]: > 6.31 µM (inactive)
- Ki [29]: > 5.01 µM (inactive)
- Ki [30]: > 3.16 µM (inactive)
- Ki [31]: > 3.16 µM (inactive)
- Ki [32]: > 3.16 µM (inactive)
- Ki [33]: > 6.31 µM (inactive)
- Ki [34]: 3.16 µM (active)
- Ki [35]: 0.158 µM (active)
- Ki [36]: 0.0631 µM (active)
- Ki [37]: > 6.31 µM (inactive)
- Ki [38]: > 3.16 µM (inactive)
- Ki [39]: 0.0398 µM (active)
- Ki [40]: 1.58 µM (active)
- Ki [41]: > 3.98 µM (inactive)
- Ki [42]: > 6.31 µM (inactive)
- Ki [43]: > 3.98 µM (inactive)
- Ki [44]: > 3.98 µM (inactive)
- Ki [45]: > 2.51 µM (inactive)
- Ki [46]: > 3.98 µM (inactive)
- Ki [47]: > 2.51 µM (inactive)
- Ki [48]: 0.0631 µM (active)
- Ki [49]: > 3.98 µM (inactive)
- Ki [50]: > 3.98 µM (inactive)
- Ki [51]: > 5.01 µM (inactive)
- Ki [52]: > 3.98 µM (inactive)
- Ki [53]: > 1.58 µM (inactive)
- Ki [54]: > 5.01 µM (inactive)
- Ki [56]: > 1.58 µM (inactive)
- Ki [57]: > 3.16 µM (inactive)
- Ki [58]: > 2.51 µM (inactive)
- Ki [59]: > 2.51 µM (inactive)
- Ki [60]: 2 µM (active)
- Ki [61]: > 2.51 µM (inactive)
Compound: O=C(Nc1cccc(C(F)(F)F)n1)Nc1ccnc2ccc(Cl)cc12
- Ki [55]: 5.01 µM (active)

- IC50 [62]: 0.417 µM (active)
- IC50 [63]: 0.417 µM (active)
Compound: N#CC(c1ccsc1)c1c(Br)cnn(Cc2cccc3ccccc23)c1=O (stereo not drawn)
